Laboratory results from ChEMBL document CHEMBL1201862, “PubChem BioAssay data set” (2004).
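Briefly, cells in 96-well plates were exposed to five compound concentrations for 48 h, and endpoints were estimated by linear interpolation. The concentration for 50% growth inhibition is given as GI50.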 The source made the active and inactive calls. No stated cut-off is given here; in the data, active = GI50 up to about 1.1 µM and inactive = higher.

Legend:
Assay in all cases: inhibition of tumour cell growth, NCI panel, 48 h
ACHN = system: ACHN
EKVX = system: EKVX
HCT-116 = system: HCT-116
HT-29 = system: HT-29
IGROV-1 = system: IGROV-1
K562 = system: K562
M14 = system: M14
MOLT-4 = system: MOLT-4
NCI-H460 = system: NCI-H460
NCI-H522 = system: NCI-H522
NCI/ADR-RES = system: NCI/ADR-RES
OVCAR-5 = system: OVCAR-5
RXF 393 = system: RXF 393
SK-MEL-28 = system: SK-MEL-28
SK-OV-3 = system: SK-OV-3
TK-10 = system: TK-10
UO-31 = system: UO-31
HOP-62 = system: HOP-62
SF-539 = system: SF-539
Malme-3M = system: Malme-3M

| Compound | GI50 (ACHN) | GI50 (EKVX) | GI50 (HCT-116) | GI50 (HT-29) | GI50 (IGROV-1) | GI50 (K562) | GI50 (M14) | GI50 (MOLT-4) | GI50 (NCI-H460) | GI50 (NCI-H522) | GI50 (NCI/ADR-RES) | GI50 (OVCAR-5) | GI50 (RXF 393) | GI50 (SK-MEL-28) | GI50 (SK-OV-3) | GI50 (TK-10) | GI50 (UO-31) | GI50 (HOP-62) | GI50 (SF-539) | GI50 (Malme-3M) |
| --- | --- | --- | --- | --- | --- | --- | --- | --- | --- | --- | --- | --- | --- | --- | --- | --- | --- | --- | --- | --- |
| CC(=O)Nc1ccc2[nH]c(C(=O)N3CC(CCl)c4c3cc([N+](=O)[O-])c3ccccc43)cc2c1 (stereo not given) | 5.57 µM (inactive) | 5.09 µM (inactive) | 6.41 µM (inactive) | 29.9 µM (inactive) | 2.92 µM (inactive) | 0.601 µM (active) | 24.2 µM (inactive) | 0.889 µM (active) | 12.9 µM (inactive) | 1.14 µM (inactive) | 4.45 µM (inactive) | 13.1 µM (inactive) | 4.74 µM (inactive) | > 35.6 µM (inactive) | 0.791 µM (active) | 6.32 µM (inactive) | 0.805 µM (active) | – | – | – |
| O=C1OC(c2ccccc2)=N/C1=C\c1ccc([N+](=O)[O-])cc1 | 14.3 µM (inactive) | 36 µM (inactive) | 98.6 µM (inactive) | > 100 µM (inactive) | 27.9 µM (inactive) | > 100 µM (inactive) | > 100 µM (inactive) | 15.1 µM (inactive) | > 100 µM (inactive) | 9.57 µM (inactive) | 8.97 µM (inactive) | > 100 µM (inactive) | 32.9 µM (inactive) | > 100 µM (inactive) | 34.7 µM (inactive) | 28.8 µM (inactive) | 50.7 µM (inactive) | 30.1 µM (inactive) | 9.16 µM (inactive) | – |
| CN(C)c1nc2nonc2nc1Nc1ccccc1 | > 100 µM (inactive) | > 100 µM (inactive) | > 100 µM (inactive) | > 100 µM (inactive) | > 100 µM (inactive) | > 100 µM (inactive) | > 100 µM (inactive) | > 100 µM (inactive) | > 100 µM (inactive) | > 100 µM (inactive) | > 100 µM (inactive) | > 100 µM (inactive) | > 100 µM (inactive) | > 100 µM (inactive) | > 100 µM (inactive) | > 100 µM (inactive) | > 100 µM (inactive) | > 100 µM (inactive) | – | > 100 µM (inactive) |
| CO/C(=N\N=C(/C)C(F)(F)F)c1ccncc1 | – | – | > 100 µM (inactive) | > 100 µM (inactive) | > 100 µM (inactive) | > 100 µM (inactive) | > 100 µM (inactive) | 44.5 µM (inactive) | > 100 µM (inactive) | > 100 µM (inactive) | > 100 µM (inactive) | > 100 µM (inactive) | > 100 µM (inactive) | > 100 µM (inactive) | > 100 µM (inactive) | – | > 100 µM (inactive) | > 100 µM (inactive) | – | > 100 µM (inactive) |
| Cc1sc2nc3n(c(=O)c2c1C)N=CN(c1ccc(F)cc1)C3 | 29 µM (inactive) | > 100 µM (inactive) | 23.8 µM (inactive) | > 100 µM (inactive) | 61.9 µM (inactive) | > 100 µM (inactive) | > 100 µM (inactive) | > 100 µM (inactive) | 44.5 µM (inactive) | 69.3 µM (inactive) | > 100 µM (inactive) | > 100 µM (inactive) | > 100 µM (inactive) | > 100 µM (inactive) | 52 µM (inactive) | > 100 µM (inactive) | > 100 µM (inactive) | 23.8 µM (inactive) | – | 25 µM (inactive) |
| COc1cc([C@@H]2c3cc4c(cc3[C@@H](/N=C/c3ccc(C(=O)O[C@@H](C(=O)O[C@H]5C[C@@]6(O)[C@@H](OC(=O)c7ccccc7)[C@@H]7[C@]8(OC(C)=O)CO[C@@H]8C[C@H](O)[C@@]7(C)C(=O)[C@H](OC(C)=O)C(=C5C)C6(C)C)[C@@H](NC(=O)c5ccccc5)c5ccccc5)cc3)[C@H]3COC(=O)[C@H]23)OCO4)cc(OC)c1O | 5.08 µM (inactive) | 5.93 µM (inactive) | 0.027 µM (active) | 0.0103 µM (active) | 0.19 µM (active) | < 0.005 µM (active) | 0.022 µM (active) | 0.018 µM (active) | 0.00929 µM (active) | 0.0138 µM (active) | > 46 µM (inactive) | 0.0312 µM (active) | 0.0333 µM (active) | > 37.1 µM (inactive) | 0.0785 µM (active) | 14.1 µM (inactive) | – | 0.246 µM (active) | 0.0141 µM (active) | – |
| CCOC(=O)/C=C/C1(CCOC(C)=O)CCCCC1 | > 10 µM (inactive) | > 10 µM (inactive) | > 10 µM (inactive) | > 10 µM (inactive) | > 10 µM (inactive) | > 10 µM (inactive) | > 10 µM (inactive) | > 10 µM (inactive) | > 10 µM (inactive) | > 10 µM (inactive) | > 10 µM (inactive) | > 10 µM (inactive) | > 10 µM (inactive) | > 10 µM (inactive) | > 10 µM (inactive) | > 10 µM (inactive) | > 10 µM (inactive) | > 10 µM (inactive) | > 10 µM (inactive) | – |
| NC(=O)C1CCCN1C(=O)C(Cc1c[nH]cn1)NC(=O)C1CCCC1 (stereo not given) | > 100 µM (inactive) | > 100 µM (inactive) | > 100 µM (inactive) | > 100 µM (inactive) | > 100 µM (inactive) | > 100 µM (inactive) | > 100 µM (inactive) | > 100 µM (inactive) | > 100 µM (inactive) | > 100 µM (inactive) | > 100 µM (inactive) | > 100 µM (inactive) | > 100 µM (inactive) | > 100 µM (inactive) | > 100 µM (inactive) | > 100 µM (inactive) | > 100 µM (inactive) | > 100 µM (inactive) | – | > 100 µM (inactive) |
| CSc1nc(C)c2c(n1)SCC2 | > 10 µM (inactive) | > 10 µM (inactive) | > 10 µM (inactive) | > 10 µM (inactive) | > 10 µM (inactive) | > 10 µM (inactive) | > 10 µM (inactive) | > 10 µM (inactive) | > 10 µM (inactive) | – | > 10 µM (inactive) | > 10 µM (inactive) | > 10 µM (inactive) | > 10 µM (inactive) | > 10 µM (inactive) | > 10 µM (inactive) | > 10 µM (inactive) | > 10 µM (inactive) | > 10 µM (inactive) | > 10 µM (inactive) |
| O=Cc1ccc(-c2cccc([N+](=O)[O-])c2)s1 | > 100 µM (inactive) | 71.4 µM (inactive) | > 100 µM (inactive) | > 100 µM (inactive) | > 100 µM (inactive) | 72.1 µM (inactive) | > 100 µM (inactive) | 41.2 µM (inactive) | > 100 µM (inactive) | > 100 µM (inactive) | 94.6 µM (inactive) | > 100 µM (inactive) | 54.3 µM (inactive) | > 100 µM (inactive) | > 100 µM (inactive) | > 100 µM (inactive) | 65.8 µM (inactive) | > 100 µM (inactive) | > 100 µM (inactive) | – |
| Cc1ccc(SC[C@@]2(C(F)F)NC(=O)NC2=O)cc1 | > 100 µM (inactive) | > 100 µM (inactive) | > 100 µM (inactive) | > 100 µM (inactive) | > 100 µM (inactive) | > 100 µM (inactive) | > 100 µM (inactive) | > 100 µM (inactive) | > 100 µM (inactive) | > 100 µM (inactive) | > 100 µM (inactive) | > 100 µM (inactive) | > 100 µM (inactive) | > 100 µM (inactive) | > 100 µM (inactive) | > 100 µM (inactive) | > 100 µM (inactive) | > 100 µM (inactive) | – | > 100 µM (inactive) |
| O=C1OC(C2Cc3ccc4ccccc4c3C2=O)c2ccccc21 (stereo not given) | 53.1 µM (inactive) | 29.6 µM (inactive) | 41.4 µM (inactive) | – | 39.4 µM (inactive) | 57.7 µM (inactive) | 92.9 µM (inactive) | 31.4 µM (inactive) | 49.7 µM (inactive) | 36.9 µM (inactive) | 49.2 µM (inactive) | > 100 µM (inactive) | 17.4 µM (inactive) | 55.5 µM (inactive) | – | 60 µM (inactive) | 71.3 µM (inactive) | – | 21.6 µM (inactive) | 50.1 µM (inactive) |
| CNC1(c2cc3ccccc3s2)CCCCC1 | 42.6 µM (inactive) | 0.433 µM (active) | 41.5 µM (inactive) | 14.8 µM (inactive) | 19.1 µM (inactive) | 31.8 µM (inactive) | 18 µM (inactive) | 42.2 µM (inactive) | 17.7 µM (inactive) | 12.7 µM (inactive) | 33.3 µM (inactive) | 20.5 µM (inactive) | 23.4 µM (inactive) | – | 39 µM (inactive) | 44.2 µM (inactive) | 46.9 µM (inactive) | 33.9 µM (inactive) | 20.4 µM (inactive) | – |
| CCOP(=O)(C/C=C/Cn1ncc(=O)[nH]c1=O)OCC | 63.2 µM (inactive) | > 100 µM (inactive) | – | > 100 µM (inactive) | > 100 µM (inactive) | > 100 µM (inactive) | > 100 µM (inactive) | > 100 µM (inactive) | > 100 µM (inactive) | > 100 µM (inactive) | > 100 µM (inactive) | > 100 µM (inactive) | > 100 µM (inactive) | > 100 µM (inactive) | – | > 100 µM (inactive) | > 100 µM (inactive) | > 100 µM (inactive) | > 100 µM (inactive) | > 100 µM (inactive) |
| CCOC(=O)c1ccc2c(=O)n3c(C(=O)OCC)ccc3c(=O)n12 | > 100 µM (inactive) | > 100 µM (inactive) | > 100 µM (inactive) | > 100 µM (inactive) | > 100 µM (inactive) | > 100 µM (inactive) | > 100 µM (inactive) | > 100 µM (inactive) | > 100 µM (inactive) | 60.7 µM (inactive) | > 100 µM (inactive) | > 100 µM (inactive) | > 100 µM (inactive) | > 100 µM (inactive) | 68.2 µM (inactive) | > 100 µM (inactive) | > 100 µM (inactive) | > 100 µM (inactive) | – | > 100 µM (inactive) |
